{"source": "patent US11987586B1", "about": "(TAKEDA PHARMACEUTICAL COMPANY LIMITED, priority 2022, dated 2024)", "data": [{"molecular_target": "T1, human OX2 receptor (Homo sapiens, UniProt O43614)", "T1 construct": "expressed in transfected cells", "T1 sequence (O43614 1-444)": "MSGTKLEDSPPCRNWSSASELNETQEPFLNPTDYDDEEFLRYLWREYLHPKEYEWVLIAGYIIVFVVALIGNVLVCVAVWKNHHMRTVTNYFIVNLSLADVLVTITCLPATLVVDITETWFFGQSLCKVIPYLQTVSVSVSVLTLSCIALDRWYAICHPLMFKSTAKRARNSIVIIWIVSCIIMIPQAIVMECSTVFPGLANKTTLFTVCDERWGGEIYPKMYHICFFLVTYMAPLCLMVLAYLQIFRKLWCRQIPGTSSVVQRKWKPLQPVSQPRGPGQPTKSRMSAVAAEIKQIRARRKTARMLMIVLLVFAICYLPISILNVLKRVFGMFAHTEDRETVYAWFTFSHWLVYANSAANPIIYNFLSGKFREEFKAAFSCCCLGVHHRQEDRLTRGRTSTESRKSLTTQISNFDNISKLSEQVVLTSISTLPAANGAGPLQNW", "test": "Measurement of orexin type 2 receptor agonist activity (calcium fluorescence, Fluo-4, FDSS)", "format": "cell-based", "conditions": "3 uM test compound; CHO cells expressing human OX2 receptor; DMSO = 0%, 10 nM orexin A (human) = 100%", "summary_of_the_method": "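CHO-K1 cells stably expressing human OX2 receptor (residues 1-444) were loaded with Fluo-4 AM plus probenecid. Calcium fluorescence after compound addition was recorded for 1 min 40 s. Activity (%) was scaled between DMSO (0%) and 10 nM orexin A final (100%).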", "units": {"OX2R agonist activity (3 uM, %)": "%"}, "values": [{"smiles": "CCOc1cc(-c2c(F)cccc2F)c2c(N3C[C@H]4N(C[C@@H](NS(C)(=O)=O)C4(F)F)C3=O)noc2c1", "note": "[Example 145, N-{(6R,7aR)-2-[4-(2,6-difluorophenyl)-6-ethoxy-1,2-benzoxazol-3-yl]-7,7-difluoro-3-oxohexahydro-1H-pyrrolo[1,2-c]imidazol-6-yl}methanesulfonamide]", "OX2R agonist activity (3 uM, %)": 105}, {"smiles": "CCS(=O)(=O)N[C@H]1Cc2cn(-c3nsc4nc(C)cc(-c5c(F)cccc5F)c34)c(=O)n2C1", "note": "[Example 152, N-{(6S)-2-[4-(2,6-difluorophenyl)-6-methyl[1,2]thiazolo[5,4-b]pyridin-3-yl]-3-oxo-2,5,6,7-tetrahydro-3H-pyrrolo[1,2-c]imidazol-6-yl}ethanesulfonamide]", "OX2R agonist activity (3 uM, %)": 92}, {"smiles": "CCS(=O)(=O)N[C@@H]1CN2C(=O)N(c3noc4cc(C)cc(-c5c(F)cc(F)cc5F)c34)C[C@@H]2C1(F)F", "note": "[Example 153, N-{(6R,7aR)-7,7-difluoro-2-[6-methyl-4-(2,4,6-trifluorophenyl)-1,2-benzoxazol-3-yl]-3-oxohexahydro-1H-pyrrolo[1,2-c]imidazol-6-yl}ethanesulfonamide]", "OX2R agonist activity (3 uM, %)": 96}, {"smiles": "CCS(=O)(=O)N[C@@H]1CN2C(=O)N(c3noc4cc(C)cc(-c5c(F)cccc5F)c34)C[C@@H]2C1(F)F", "note": "[Example 154, N-{(6R,7aR)-2-[4-(2,6-difluorophenyl)-6-methyl-1,2-benzoxazol-3-yl]-7,7-difluoro-3-oxohexahydro-1H-pyrrolo[1,2-c]imidazol-6-yl}ethanesulfonamide]", "OX2R agonist activity (3 uM, %)": 98}, {"smiles": "CCS(=O)(=O)N[C@@H]1Cn2c(cn(-c3noc4cc(C)cc(-c5c(F)cc(F)cc5F)c34)c2=O)C1(F)F", "note": "[Example 155, N-{(6R)-7,7-difluoro-2-[6-methyl-4-(2,4,6-trifluorophenyl)-1,2-benzoxazol-3-yl]-3-oxo-2,5,6,7-tetrahydro-3H-pyrrolo[1,2-c]imidazol-6-yl}ethanesulfonamide]", "OX2R agonist activity (3 uM, %)": 96}, {"smiles": "CCS(=O)(=O)N[C@@H]1Cn2c(cn(-c3noc4cc(C)cc(-c5c(F)cccc5F)c34)c2=O)C1(F)F", "note": "[Example 156, N-{(6R)-2-[4-(2,6-difluorophenyl)-6-methyl-1,2-benzoxazol-3-yl]-7,7-difluoro-3-oxo-2,5,6,7-tetrahydro-3H-pyrrolo[1,2-c]imidazol-6-yl}ethanesulfonamide]", "OX2R agonist activity (3 uM, %)": 102}, {"smiles": "CCS(=O)(=O)N[C@@H]1Cn2c(cn(-c3noc4cc(C(F)(F)F)cc(-c5c(F)cc(F)cc5F)c34)c2=O)C1(F)F", "note": "[Example 157, N-{(6R)-7,7-difluoro-3-oxo-2-[6-(trifluoromethyl)-4-(2,4,6-trifluorophenyl)-1,2-benzoxazol-3-yl]-2,5,6,7-tetrahydro-3H-pyrrolo[1,2-c]imidazol-6-yl}ethanesulfonamide]", "OX2R agonist activity (3 uM, %)": 96}, {"smiles": "CCOc1cc(-c2c(F)cc(F)cc2F)c2c(N3C[C@H]4N(C[C@@H](NS(C)(=O)=O)C4(F)F)C3=O)noc2c1", "note": "[Example 160, N-{(6R,7aR)-2-[6-ethoxy-4-(2,4,6-trifluorophenyl)-1,2-benzoxazol-3-yl]-7,7-difluoro-3-oxohexahydro-1H-pyrrolo[1,2-c]imidazol-6-yl}methanesulfonamide]", "OX2R agonist activity (3 uM, %)": 99}, {"smiles": "CCS(=O)(=O)N[C@@H]1CN2C(=O)N(c3noc4cc(C)c(F)c(-c5c(F)cc(F)cc5F)c34)C[C@@H]2C1(F)F", "note": "[Example 162, N-{(6R,7aR)-7,7-difluoro-2-[5-fluoro-6-methyl-4-(2,4,6-trifluorophenyl)-1,2-benzoxazol-3-yl]-3-oxohexahydro-1H-pyrrolo[1,2-c]imidazol-6-yl}ethanesulfonamide]", "OX2R agonist activity (3 uM, %)": 102}, {"smiles": "CCS(=O)(=O)N[C@@H]1Cn2c(cn(-c3noc4cc(C)c(F)c(-c5c(F)cc(F)cc5F)c34)c2=O)C1(F)F", "note": "[Example 163, N-{(6R)-7,7-difluoro-2-[5-fluoro-6-methyl-4-(2,4,6-trifluorophenyl)-1,2-benzoxazol-3-yl]-3-oxo-2,5,6,7-tetrahydro-3H-pyrrolo[1,2-c]imidazol-6-yl}ethanesulfonamide]", "OX2R agonist activity (3 uM, %)": 103}, {"smiles": "Cc1cc(-c2c(F)cccc2F)c2c(N3C[C@H]4N(C[C@@H](NS(C)(=O)=O)C4(F)F)C3=O)noc2n1", "note": "[Example 164, N-{(6R,7aR)-2-[4-(2,6-difluorophenyl)-6-methyl[1,2]oxazolo[5,4-b]pyridin-3-yl]-7,7-difluoro-3-oxohexahydro-1H-pyrrolo[1,2-c]imidazol-6-yl}methanesulfonamide]", "OX2R agonist activity (3 uM, %)": 108}, {"smiles": "CCS(=O)(=O)N[C@@H]1Cn2c(cn(-c3noc4cc(C(F)F)cc(-c5c(F)cc(F)cc5F)c34)c2=O)C1(F)F", "note": "[Example 165, N-{(6R)-2-[6-(difluoromethyl)-4-(2,4,6-trifluorophenyl)-1,2-benzoxazol-3-yl]-7,7-difluoro-3-oxo-2,5,6,7-tetrahydro-3H-pyrrolo[1,2-c]imidazol-6-yl}ethanesulfonamide]", "OX2R agonist activity (3 uM, %)": 97}, {"smiles": "CCS(=O)(=O)N[C@@H]1Cn2c(cn(-c3noc4cc(COC)cc(-c5c(F)cc(F)cc5F)c34)c2=O)C1(F)F", "note": "[Example 166, N-{(6R)-7,7-difluoro-2-[6-(methoxymethyl)-4-(2,4,6-trifluorophenyl)-1,2-benzoxazol-3-yl]-3-oxo-2,5,6,7-tetrahydro-3H-pyrrolo[1,2-c]imidazol-6-yl}ethanesulfonamide]", "OX2R agonist activity (3 uM, %)": 92}, {"smiles": "CCS(=O)(=O)N[C@@H]1Cn2c(cn(-c3noc4cc(COC)cc(-c5c(F)cccc5F)c34)c2=O)C1(F)F", "note": "[Example 167, N-{(6R)-2-[4-(2,6-difluorophenyl)-6-(methoxymethyl)-1,2-benzoxazol-3-yl]-7,7-difluoro-3-oxo-2,5,6,7-tetrahydro-3H-pyrrolo[1,2-c]imidazol-6-yl}ethanesulfonamide]", "OX2R agonist activity (3 uM, %)": 97}, {"smiles": "CCS(=O)(=O)N[C@@H]1CN2C(=O)N(c3noc4cc(F)c(F)c(-c5c(F)cccc5F)c34)C[C@@H]2C1(F)F", "note": "[Example 168, N-{(6R,7aR)-2-[4-(2,6-difluorophenyl)-5,6-difluoro-1,2-benzoxazol-3-yl]-7,7-difluoro-3-oxohexahydro-1H-pyrrolo[1,2-c]imidazol-6-yl}ethanesulfonamide]", "OX2R agonist activity (3 uM, %)": 102}, {"smiles": "CCS(=O)(=O)N[C@@H]1Cn2c(cn(-c3noc4cc(C)c(F)c(-c5c(F)cccc5F)c34)c2=O)C1(F)F", "note": "[Example 169, N-{(6R)-2-[4-(2,6-difluorophenyl)-5-fluoro-6-methyl-1,2-benzoxazol-3-yl]-7,7-difluoro-3-oxo-2,5,6,7-tetrahydro-3H-pyrrolo[1,2-c]imidazol-6-yl}ethanesulfonamide]", "OX2R agonist activity (3 uM, %)": 103}, {"smiles": "CCS(=O)(=O)N[C@@H]1Cn2c(cn(-c3noc4cc(F)c(F)c(-c5c(F)cccc5F)c34)c2=O)C1(F)F", "note": "[Example 170, N-{(6R)-2-[4-(2,6-difluorophenyl)-5,6-difluoro-1,2-benzoxazol-3-yl]-7,7-difluoro-3-oxo-2,5,6,7-tetrahydro-3H-pyrrolo[1,2-c]imidazol-6-yl}ethanesulfonamide]", "OX2R agonist activity (3 uM, %)": 94}]}]}
